Results published in US11505548B2, “Heterocyclic compounds and their use for treatment of helminthic infections and diseases” (Celgene Corporation, priority 2019, dated 2022).

What follows are molecules tested on microfilariae of Dirofilaria immitis (assay: Dirofilaria immitis, Microfilaria (DiMF) Assay). Settings: read-out: D. immitis activity level (IC50 or MED).
Type: cell-based
Experimental: Heartworm Screen Dirofilaria immitis (D. immitis)
Dirofilaria immitis, Microfilaria (DiMF) Assay.
Compounds were dissolved and serially diluted in DMSO. Aliquots were spotted to the empty wells of assay plates. Media and microfilariae of Dirofilaria immitis were added to each well to dilute the test compounds to the desired concentrations. Assay plates were incubated for approximately 72 hours, and the larvae in each well were observed microscopically for drug effect. Microfilariae in each well were assessed subjectively for survival or paralysis, and results were reported as Minimum Effective Dose (MED).
Active and selective (DiL4 vs. DiMF potency) example compounds were subsequently evaluated in heartworm positive dog studies to correlate the in vitro selectivity profile with in vivo effects on circulating microfilariae.

Row | SMILES | IC50 [nM]
1 | CCOc1cnc(-c2nsc(Nc3ncccc3N(C)C(C)=O)n2)cc1C(F)(F)F [Compound 228, N-(2-(3-(5-ethoxy-4-(trifluoro-methyl)pyridin-2-yl)-1,2,4-thiadiazol-5-ylamino)pyridin-3-yl)-N-methyl-acetamide] | 500 to 5000
2 | CN(C)c1cccnc1Nc1nc(-c2ccc(F)cn2)ns1 [Compound 121, N2-(3-(5-fluoro-pyridin-2-yl)-1,2,4-thiadiazol-5-yl)-N3,N3-dimethylpyridine-2,3-diamine] | 500 to 5000
3 | O=C(NC1CC(F)(F)C1)c1ccc(Nc2nc(-c3ccc(OC4CC4)cn3)ns2)nc1 [Compound 107, 6-(3-(5-cyclo-propoxypyridin-2-yl)-1,2,4-thiadiazol-5-ylamino)-N-(3,3-difluoro-cyclobutyl) nicotinamide] | 500 to 5000
4 | CN(C)c1cccnc1Nc1nc(-c2ccc(OCC3CC3)cn2)ns1 [Compound 118, N2-(3-(5-(cyclopropyl-methoxy)pyridin-2-yl)-1,2,4-thiadiazol-5-yl)-N3,N3-dimethyl-pyridine-2,3-diamine] | 500 to 5000
5 | c1ccc(-c2nsc(Nc3ccc(N4CCCCC4)cn3)n2)nc1 [Cmpd 6, N-(5-(piperidin-1-yl)pyridin-2-yl)-3-(pyridin-2-yl)-1,2,4-thiadiazol-5-amine] | 500 to 5000
6 | CC(C)Oc1ccc(-c2nsc(Nc3ncccc3C3CC3)n2)nc1 [Compound 76, N-(3-cyclopropyl-pyridin-2-yl)-3-(5-isopropoxy-pyridin-2-yl)-1,2,4-thiadiazol-5-amine] | < 200
7 | COc1cnc(Nc2nc(-c3cc(C(N)=O)c(OC(C)C)cn3)ns2)c(C(F)(F)F)c1 [Compound 253, 5-isopropoxy-2-(5-(5-methoxy-3-(trifluoro-methyl)pyridin-2-ylamino)-1,2,4-thiadiazol-3-yl)isonico-tinamide] | 500 to 5000
8 | COc1cnc(Nc2nc(-c3cc(C(=O)N(C)C)c(OC(C)C)cn3)ns2)c(C(F)(F)F)c1 [Compound 264, 5-isopropoxy-2-(5-(5-methoxy-3-(trifluoro-methyl)pyridin-2-ylamino)-1,2,4-thiadiazol-3-yl)-N,N-dimethyliso-nicotinamide] | 200 to 500
9 | Cc1cccnc1Nc1nc(-c2cc(C(F)(F)F)c(OC3CC3)cn2)ns1 [Compound 102, 3-(5-cyclo-propoxy-4-(trifluoromethyl)pyridin-2-yl)-N-(3-methyl-pyridin-2-yl)-1,2,4-thiadiazol-5-amine] | 200 to 500
10 | CC(=O)N(C)c1ccc(-c2nsc(Nc3ncccc3C)n2)nc1 [Compound 269, N-methyl-N-(6-(5-(3-methylpyridin-2-ylamino)-1,2,4-thiadiazol-3-yl)pyridin-3-yl)acetamide] | 500 to 5000
11 | CC(C)c1cccnc1Nc1nc(-c2ccc(O[C@@H]3CCN(C4CC4)C[C@@H]3F)cn2)ns1 [Compound 89, 3-(5-((3S,4R)-1-cyclopropyl-3-fluoro-piperidin-4-yloxy)pyridin-2-yl)-N-(3-isopropylpyridin-2-yl)-1,2,4-thiadiazol-5-amine] | < 200
12 | Cc1cccnc1Nc1nc(-c2ncc(OC3CC3)cc2C(F)(F)F)ns1 [Compound 93, 3-(5-cyclo-propoxy-3-(trifluoromethyl)pyridin-2-yl)-N-(3-methyl-pyridin-2-yl)-1,2,4-thiadiazol-5-amine] | 500 to 5000
13 | Cc1ccnc(Nc2nc(-c3ncccc3C)ns2)c1 [Compound 238, 3-(3-methyl-pyridin-2-yl)-N-(4-methyl-pyridin-2-yl)-1,2,4-thiadiazol-5-amine] | 200 to 500
14 | CC(=O)N(C)c1cccnc1Nc1nc(-c2cc(C(F)(F)F)c(OC(C)C)cn2)ns1 [Compound 187, N-(2-(3-(5-isopropoxy-4-(trifluoro-methyl)pyridin-2-yl)-1,2,4-thiadiazol-5-ylamino)pyridin-3-yl)-N-methylacetamide] | 200 to 500
15 | COc1cccnc1Nc1nc(-c2cc(C(F)(F)F)c(OC3CC3)cn2)ns1 [Compound 134, 3-(5-cyclo-propoxy-4-(trifluoromethyl)pyridin-2-yl)-N-(3-methoxy-pyridin-2-yl)-1,2,4-thiadiazol-5-amine] | 500 to 5000
16 | CC(C)Oc1ccc(-c2nsc(Nc3ncccc3N3CCCC3)n2)nc1 [Compound 116, 3-(5-isopropoxy-pyridin-2-yl)-N-(3-(pyrrolidin-1-yl)pyridin-2-yl)-1,2,4-thiadiazol-5-amine] | 500 to 5000
17 | Cc1ccnc(-c2nsc(Nc3ncccc3F)n2)c1 [Compound 12, N-(3-fluoropyridin-2-yl)-3-(4-methylpyridin-2-yl)-1,2,4-thiadiazol-5-amine] | 200 to 500
18 | c1ccc(-c2ccnc(Nc3nc(-c4ccccn4)no3)c2)cc1 [Compound 246, N-(4-phenyl-pyridin-2-yl)-3-(pyridin-2-yl)-1,2,4-oxadiazol-5-amine] | 500 to 5000
19 | COc1cccnc1Nc1nc(-c2ccc(OC3CC3)cn2)ns1 [Compound 80, 3-(5-cycloprop-oxypyridin-2-yl)-N-(3-methoxypyridin-2-yl)-1,2,4-thiadiazol-5-amine] | 500 to 5000

Row | SMILES | IC50 [nM]
20 | Cc1cccnc1Nc1nc(-c2ccc(OC(C)C)cn2)no1 [Compound 20, 3-(5-isopropoxy-pyridin-2-yl)-N-(3-methyl-pyridin-2-yl)-1,2,4-oxadiazol-5-amine] | 500 to 5000
21 | CC(=O)N(C)c1cccnc1Nc1nc(-c2cc3c(cn2)N(C(C)C)CC3)ns1 [Compound 206, N-(2-(3-(1-isopropyl-2,3-dihydro-1H-pyrrolo[2,3-c]pyridin-5-yl)-1,2,4-thiadiazol-5-ylamino)pyridin-3-yl)-N-methylacetamide] | < 200
22 | CC(C)Oc1ccc(-c2nsc(Nc3ncc(C(=O)NC4CC(F)(F)C4)cc3C(C)C)n2)nc1 [Compound 195, N-(3,3-difluoro-cyclobutyl)-6-(3-(5-isoprop-oxypyridin-2-yl)-1,2,4-thiadiazol-5-ylamino)-5-isopropyl-nicotinamide] | 500 to 5000
23 | CC(C)Oc1ccc(-c2nsc(Nc3ncccc3C(C)C)n2)nc1 [Compound 115, 3-(5-isopropoxy-pyridin-2-yl)-N-(3-isopropyl-pyridin-2-yl)-1,2,4-thiadiazol-5-amine] | < 200
24 | c1ccc(-c2nsc(Nc3ccc(OC4CCOCC4)cn3)n2)nc1 [Cmpd 9, 3-(pyridin-2-yl)-N-(5-(tetrahydro-2H-pyran-4-yloxy)pyridin-2-yl)-1,2,4-thiadiazol-5-amine] | 500 to 5000
25 | Cc1ccnc(-c2noc(Nc3ncccc3F)n2)c1 [Compound 14, N-(3-fluoro-pyridin-2-yl)-3-(4-methylpyridin-2-yl)-1,2,4-oxadiazol-5-amine] | 500 to 5000
26 | Cc1cccnc1Nc1nc(-c2cc(OC(C)C)c(C(F)(F)F)cn2)ns1 [Compound 152, 3-(4-isoprop-oxy-5-(trifluoromethyl)pyridin-2-yl)-N-(3-methylpyridin-2-yl)-1,2,4-thia-diazol-5-amine] | 200 to 500
27 | CC(C)Oc1ccc(-c2nsc(Nc3ncccc3N(C)C)n2)nn1 [Compound 155, N2-(3-(6-isopropoxy-pyridazin-3-yl)-1,2,4-thiadiazol-5-yl)-N3,N3-dimethyl-pyridine-2,3-diamine] | 500 to 5000
28 | Cc1cnc(Nc2nc(-c3cc(C(N)=O)c(OC(C)C)cn3)ns2)c(C(F)(F)F)c1 [Compound 252, 5-isopropoxy-2-(5-(5-methyl-3-(trifluoro-methyl)pyridin-2-ylamino)-1,2,4-thiadiazol-3-yl)isonico-tinamide] | 500 to 5000
29 | CC(=O)N1CCC(Oc2ccc(-c3nsc(Nc4ncccc4C)n3)nc2)CC1 [Compound 266, 1-(4-(6-(5-(3-methyl-pyridin-2-ylamino)-1,2,4-thiadiazol-3-yl)pyridin-3-yloxy)piperidin-1-yl)ethanone] | 500 to 5000
30 | CN(C)c1cccnc1Nc1nc(-c2ccc(OC(F)F)cn2)ns1 [Compound 120, N2-(3-(5-(difluoromethoxy)pyridin-2-yl)-1,2,4-thiadiazol-5-yl)-N3,N3-dimethyl-pyridine-2,3-diamine] | 500 to 5000
31 | c1ccc(-c2ccnc(Nc3nnc(-c4ccccn4)[nH]3)c2)cc1 [Compound 241, 4-phenyl-N-(5-(pyridin-2-yl)-4H-1,2,4-triazol-3-yl) pyridin-2-amine] | 200 to 500
32 | FC(F)(F)c1ccc(Nc2nc(-c3cc(OC4CCCCC4)ccn3)ns2)nc1 [Compound 213, 3-(4-(cyclo-hexyloxy)pyridin-2-yl)-N-(5-(trifluoromethyl)pyridin-2-yl)-1,2,4-thiadiazol-5-amine] | < 200
33 | COc1cc(C(C)C)cnc1Nc1nc(-c2ccc(OC(C)C)cn2)ns1 [Compound 166, 3-(5-isopropoxy-pyridin-2-yl)-N-(5-isopropyl-3-methoxypyridin-2-yl)-1,2,4-thiadiazol-5-amine] | 500 to 5000
34 | Cc1cccnc1Nc1nc(-c2ccc(OC3CC3)cn2)ns1 [Compound 38, 3-(5-cyclo-propoxypyridin-2-yl)-N-(3-methyl-pyridin-2-yl)-1,2,4-thiadiazol-5-amine] | 200 to 500
35 | Cc1cc(C#N)cnc1Nc1nc(-c2ccc(OC(C)C)cn2)ns1 [Compound 231, 6-(3-(5-isoprop-oxypyridin-2-yl)-1,2,4-thiadiazol-5-ylamino)-5-methyl-nicotinonitrile] | 200 to 500
36 | COc1ccc(Nc2nc(-c3cc(OC4CCCCC4)ccn3)ns2)nc1 [Compound 183, 3-(4-(cyclo-hexyloxy)pyridin-2-yl)-N-(5-methoxypyridin-2-yl)-1,2,4-thiadiazol-5-amine] | < 200
37 | CC(C)Oc1ccc(-c2nsc(Nc3ncccc3C(=O)N(C)C)n2)nc1 [Compound 188, 2-(3-(5-isoprop-oxypyridin-2-yl)-1,2,4-thiadiazol-5-ylamino)-N,N-dimethyl nicotinamide] | 500 to 5000
38 | Cc1cccnc1Nc1nc(-c2cnc(OC(C)C)cn2)ns1 [Compound 124, 3-(5-isopropoxy-pyrazin-2-yl)-N-(3-methyl-pyridin-2-yl)-1,2,4-thiadiazol-5-amine] | 500 to 5000
